Test results published in patent publication US12583816B2, “Lipids for lipid nanoparticle delivery of active agents” (ACUITAS THERAPEUTICS, INC., priority 2018, dated 2026).

Experiments:
[1] = Determination of pKa of formulated lipids (TNS fluorescence assay in lipid nanoparticles); assay type: physicochemical
Experimental: As described elsewhere, the pKa of formulated cationic lipids is correlated with the effectiveness of LNPs for delivery of nucleic acids (see Jayaraman et al, Angewandte Chemie, International Edition (2012), 51(34), 8529-8533; Semple et al, Nature Biotechnology 28, 172-176 (2010)). The preferred range of pKa is ˜5 to ˜7. […] Lipid nanoparticles comprising cationic lipid/DSPC/cholesterol/PEG-lipid (50/10/38.5/1.5 mol %) in PBS at a concentration of 0.4 mM total lipid are prepared using the in-line process as described in Example 1. TNS is prepared as a 100 μM stock solution in distilled water. Vesicles are diluted to 24 μM lipid in 2 mL of buffered solutions containing, 10 mM HEPES, 10 mM MES, 10 mM ammonium acetate, 130 mM NaCl, where the pH ranged from 2.5 to 11. An aliquot of the TNS solution is added to give a final concentration of 1 μM and following vortex mixing fluorescence intensity is measured at room temperature in a SLM Aminco Series 2 Luminescence Spectrophotometer using excitation and emission wavelengths of 321 nm and 445 nm. A sigmoidal best fit analysis is applied to the fluorescence data and the pKa was measured as the pH giving rise to half-maximal fluorescence intensity.

[2] = system: luciferase expression in the liver; test: In vivo luciferase mRNA expression rodent model (lipid nanoparticle formulations, liver luciferase); design: species or system mice; settings: LNP with FLuc mRNA, PEG-DMA; 0.5 mg mRNA/kg, tail vein injection, liver 4 hours after administration
Experimental: Lipid nanoparticles are prepared and tested according to the general procedures described in PCT Pub. Nos. WO 2015/199952 and WO 2017/004143, the full disclosures of which are incorporated herein by reference. Briefly, cationic lipid, DSPC, cholesterol and PEG-lipid are solubilized in ethanol at a molar ratio of about 50:10:38.5:1.5 or about 47.5:10:40.8:1.7. Lipid nanoparticles (LNP) are prepared at a total lipid to mRNA weight ratio of approximately 10:1 to 30:1. The mRNA is diluted to 0.2 mg/mL in 10 to 50 mM citrate or acetate buffer, pH 4. Syringe pumps are used to mix the ethanolic lipid solution with the mRNA aqueous solution at a ratio of about 1:5 to 1:3 (vol/vol) with total flow rates above 15 mL/min. The ethanol is then removed and the external buffer replaced with PBS by dialysis. Finally, the lipid nanoparticles are filtered through a 0.2 µm pore sterile filter. Lipid nanoparticle particle size is approximately 55-95 nm diameter, and in some instances approximately 70-90 nm diameter as determined by quasi-elastic light scattering using a Malvern Zetasizer Nano ZS (Malvern, UK).
Studies are performed in 6-8 week old female C57BL/6 mice (Charles River) or 8-10 week old CD-1 (Harlan) mice (Charles River) according to guidelines established by an institutional animal care committee (ACC) and the Canadian Council on Animal Care (CCAC). Varying doses of mRNA-lipid nanoparticle are systemically administered by tail vein injection and animals euthanized at a specific time point (e.g., 4 hours) post-administration. Liver and spleen are collected in pre-weighed tubes, weights determined, immediately snap frozen in liquid nitrogen and stored at −80° C. until processing for analysis.
For liver, approximately 50 mg is dissected for analyses in a 2 mL FastPrep tubes (MP Biomedicals, Solon OH). ¼″ ceramic sphere (MP Biomedicals) is added to each tube and 500 μL of Glo Lysis Buffer—GLB (Promega, Madison WI) equilibrated to room temperature is added to liver tissue. Liver tissues are homogenized with the FastPrep24 instrument (MP Biomedicals) at 2×6.0 m/s for 15 seconds. Homogenate is incubated at room temperature for 5 minutes prior to a 1:4 dilution in GLB and assessed using SteadyGlo Luciferase assay system (Promega). Specifically, 50 μL of diluted tissue homogenate is reacted with 50 μL of SteadyGlo substrate, shaken for 10 seconds followed by 5 minute incubation and then quantitated using a CentroXS^3 LB 960 luminometer (Berthold Technologies, Germany). The amount of protein assayed is determined by using the BCA protein assay kit (Pierce, Rockford IL). Relative luminescence units (RLU) are then normalized to total ug protein assayed. To convert RLU to ng luciferase a standard curve is generated with QuantiLum Recombinant Luciferase (Promega). […]

[3] = cationic lipid formulated in LNP (cationic lipid/DSPC/cholesterol/PEG-lipid 50/10/38.5/1.5 mol %), TNS fluorescence, pH giving half-maximal fluorescence, Table 2
[4] = formulated cationic lipid in LNP, TNS assay, Table 4

| SMILES | pKa [1, 3] | pKa [1, 4] | Liver Luc @ 0.5 mg/kg (ng luc/g liver) [2] |
| --- | --- | --- | --- |
| CCCCCCCCC(CCCCCC)CN(CC(CCCCCC)CCCCCCCC)C(=O)CCCCN(CCO)CCO (stereo not shown) [Compound I-3] | 6.49 |  |  |
| CCCCCCCCC(CCCCCC)CN(CC(CCCCCC)CCCCCCCC)C(=O)CCCCN(C)C (stereo not shown) [Compound I-1] | 6.68 |  | 206 ± 141 ng luc/g liver |
| CCCCCCCCC(CCCCCC)CN(CC(CCCCCC)CCCCCCCC)C(=O)CCCCCN(C)C (stereo not shown) [Compound I-2] | 7.42 |  |  |
| CCCCCCCCC(CCCCCC)CN(CC(CCCCCC)CCCCCCCC)C(=O)CCCCNC(C)C (stereo not shown) [Compound I-4] | 8.15 |  |  |

Further lines, with some results ahead:

| pKa [1, 3] | pKa [1, 4] | SMILES | Liver Luc @ 0.5 mg/kg (ng luc/g liver) [2] |
| --- | --- | --- | --- |
| 7.15 |  | CCCCCCCCC(CCCCCC)CN(CC(CCCCCC)CCCCCCCC)C(=O)CCCCCCCCN(C)C (stereo not shown) [Compound I-6] |  |
|  | 5.96 | CCCCCCCCC(CCCCCC)CN(CCCCCCCCCN(C)C)CC(CCCCCC)CCCCCCCC (stereo not shown) [Compound I-8] | 1761 ± 598 ng luc/g liver |
|  | 5.85 | CCCCCCCCC(CCCCCC)CN(CCCCCCCCN(C)C)CC(CCCCCC)CCCCCCCC (stereo not shown) [Compound I-9] | 341 ± 126 ng luc/g liver |
| 7.23 |  | CCCCCCCCC(CCCCCC)CN(CC(CCCCCC)CCCCCCCC)C(=O)CCCCCCCN(C)C (stereo not shown) [Compound I-7] |  |
| 6.25 |  | CCCCCCCCC(CCCCCC)CN(CC(CCCCCC)CCCCCCCC)C(=O)CCN(C)C (stereo not shown) [Compound I-5] | 1417 ± 390 ng luc/g liver |
